# Source: patent publication US20250129067A1 (Progentos Therapeutics, Inc., priority 2021, published 2025)
# pIC50: −log10 of the molar value.
# Assays:
# [1] = target: PDGFRα (Homo sapiens (Human), UniProt P16234); assay: PDGFRα kinase enzyme assay (Promega PDGFRα Kinase Enzyme System, ADP-Glo); format: biochemical; settings: 11-point dose response, 10,000 nM to 0.169 nM; 150 uM ATP; BLQ = below limit of quantitation; read-out: IC50 Values on PDGFRα Kinase Inhibition, IC50
# Procedure: The PDGFRα enzyme assays were conducted per the manufacturer's directions (Promega PDGFRα Kinase Enzyme System and ADP Glo Assay Cat #V8011). […] 20 ng of purified PDGFRα protein was added to the test article. […] ADP-Glo was added to halt the kinase reaction and deplete the remaining ATP. Kinase detection reagent, containing luciferase and luciferin, was used to convert the ADP signal into luminescence. Luminescence was measured using a Molecular Devices Spectramax ID5 and compared to a standard curve to determine kinase activity. IC50s were calculated using Prism 9, Graphpad software.
# [2] = system: Oligodendrocyte progenitor cells (OPCs); assay: In vitro OPC differentiation assay, GPR17 expression (immunocytochemistry); settings: 72 hours, fold change over vehicle; for GPR17 Fold Induction (Over Vehicle; 3 μM): 3 μM (10× concentration, final 0.3 μM)
# PDGFRα, sequence (P16234 24-1089): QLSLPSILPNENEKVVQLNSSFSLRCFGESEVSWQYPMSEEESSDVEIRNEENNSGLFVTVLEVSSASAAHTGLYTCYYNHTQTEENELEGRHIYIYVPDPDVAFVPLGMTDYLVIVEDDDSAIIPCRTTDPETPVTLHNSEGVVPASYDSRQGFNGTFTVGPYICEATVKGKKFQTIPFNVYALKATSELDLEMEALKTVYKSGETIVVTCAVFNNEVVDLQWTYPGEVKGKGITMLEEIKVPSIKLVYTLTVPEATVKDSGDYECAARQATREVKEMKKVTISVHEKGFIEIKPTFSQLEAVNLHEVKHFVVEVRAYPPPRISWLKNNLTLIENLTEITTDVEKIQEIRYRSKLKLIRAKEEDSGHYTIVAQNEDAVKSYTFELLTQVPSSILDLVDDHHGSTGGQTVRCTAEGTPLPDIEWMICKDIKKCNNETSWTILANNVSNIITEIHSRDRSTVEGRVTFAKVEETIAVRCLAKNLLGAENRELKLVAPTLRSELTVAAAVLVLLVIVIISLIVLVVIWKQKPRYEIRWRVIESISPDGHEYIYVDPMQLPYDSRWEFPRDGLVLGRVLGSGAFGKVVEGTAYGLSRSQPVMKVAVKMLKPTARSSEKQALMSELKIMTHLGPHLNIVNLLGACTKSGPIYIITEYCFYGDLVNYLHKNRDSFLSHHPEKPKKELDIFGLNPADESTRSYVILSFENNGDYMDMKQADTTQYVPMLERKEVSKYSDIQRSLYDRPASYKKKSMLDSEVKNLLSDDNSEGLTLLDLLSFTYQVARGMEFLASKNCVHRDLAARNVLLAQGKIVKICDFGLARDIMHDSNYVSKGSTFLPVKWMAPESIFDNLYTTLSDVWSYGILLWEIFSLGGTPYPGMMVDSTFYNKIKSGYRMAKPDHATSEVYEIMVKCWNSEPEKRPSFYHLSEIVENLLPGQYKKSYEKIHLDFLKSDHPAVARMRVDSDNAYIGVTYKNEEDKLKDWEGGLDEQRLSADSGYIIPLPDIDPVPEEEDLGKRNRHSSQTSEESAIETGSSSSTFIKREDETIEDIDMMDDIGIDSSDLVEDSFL
SMILES,pIC50 [1],GPR17 Fold Induction (Over Vehicle; 3 μM) [2],"GPR17 Fold Induction (Over Vehicle; 5 μM) ([2]; 5 μM (10× concentration, final 0.5 μM))"
"CCC(O)c1ccc2c(N3CCN(C(=O)OC(C)(C)C)CC3)cnn2c1 (stereo not shown) [Compound 298, tert-butyl 4-(6-(1-hydroxypropyl)pyrazolo[1,5-a]pyridin-3-yl)piperazine-1-carboxylate]",< 5.00,1.56,
"Cn1cc(-c2ccc3c(N4CCN(c5ncc(Cc6ccsc6)cn5)CC4)cnn3c2)cn1 [Compound 302, 6-(1-methyl-1H-pyrazol-4-yl)-3-(4-(5-(thiophen-3-ylmethyl)pyrimidin-2-yl)piperazin-1-yl)pyrazolo[1,5-a]pyridine]",6.86,8.86,
"COCCn1cnc(-c2ccc3c(N4CCN(C(=O)OC(C)(C)C)CC4)cnn3c2)c1 [Compound 227, tert-butyl 4-(6-(1-(2-methoxyethyl)-1H-imidazol-4-yl)pyrazolo[1,5-a]pyridin-3-yl)piperazine-1-carboxylate]",6.57,9.02,
"Cn1cc(-c2ccc3c(N4CCN(C(=O)OC(C)(C)C)CCC4=O)cnn3c2)cn1 [Compound 27, tert-butyl 4-[6-(1-methyl-1H-pyrazol-4-yl)pyrazolo[1,5-a]pyridine-3-yl]-5-oxo-1,4-diazepane-1-carboxylate]",< 5.00,0.96,
"Cn1cc(-c2ccc3c(N4CCN(c5ncc(Cc6ccccc6)cn5)CC4)nnn3c2)cn1 [Compound 9, 3-[4-(5-benzylpyrimidin-2-yl)piperazin-1-yl]-6-(1-methyl-1H-pyrazol-4-yl)[1,2,3]triazolo[1,5-a]pyridine]",< 5.00,1.88,
"Cn1cc(-c2ccc3c(N4CCN(c5ncc(Cc6ccoc6)cn5)CC4)cnn3c2)cn1 [Compound 169, 3-(4-(5-(furan-3-ylmethyl)pyrimidin-2-yl)piperazin-1-yl)-6-(1-methyl-1H-pyrazol-4-yl)pyrazolo[1,5-a]pyridine]",6.08,9.79,
"CCCCC(O)c1cnc(N2CCN(c3cnn4cc(-c5cnn(C)c5)ccc34)CC2)nc1 (stereo not shown) [Compound 168, 1-(2-(4-(6-(1-methyl-1H-pyrazol-4-yl)pyrazolo[1,5-a]pyridin-3-yl)piperazin-1-yl)pyrimidin-5-yl)pentan-1-ol]",6.98,6.43,
"Cn1cc(-c2ccc3c(N4CCN(C(=O)OCc5csc(Cl)c5)CC4)cnn3c2)cn1 [Compound 197, (5-chlorothiophen-3-yl)methyl 4-(6-(1-methyl-1H-pyrazol-4-yl)pyrazolo[1,5-a]pyridin-3-yl)piperazine-1-carboxylate]",7.19,12.24,
"Cn1cc(-c2ccc3c(N4CCNCC4)cnn3c2)cn1 [Compound 12, 1-[6-(1-methylpyrazol-4-yl)pyrazolo[1,5-a]pyridin-3-yl]piperazine]",< 5.00,0.68,
CN(CCN(C)c1cnc2nc(-c3cccnc3)ccn12)C(=O)OC(C)(C)C [Compound 112],< 5.00,0.91,
"Cc1cn(-c2ccn3c(N4CCN(C(=O)OC(C)(C)C)CC4)cnc3n2)cn1 [Compound 104, tert-butyl 4-(7-(4-methyl-1H-imidazol-1-yl)imidazo[1,2-a]pyrimidin-3-yl)piperazine-1-carboxylate]",5.55,1.40,
"Cn1cc(-c2ccc3c(C4=CCC(COc5ccccc5)CC4)cnn3c2)cn1 (stereo not shown) [Compound 243, 1-methyl-4-{3-[4-(phenoxymethyl)cyclohex-1-en-1-yl]pyrazolo[1,5-a]pyridin-6-yl}pyrazole]",< 5.00,0.62,
"Cn1cc(-c2ccc3c(N4CCN(c5ncc(Cc6ccccc6)cn5)C(=O)C4)cnn3c2)cn1 [Compound 144, 1-(5-benzylpyrimidin-2-yl)-4-(6-(1-methyl-1H-pyrazol-4-yl)pyrazolo[1,5-a]pyridin-3-yl)piperazin-2-one]",5.34,2.64,
"C[C@@H](OC(=O)N1CCN(c2cnn3cc(-c4cnn(C)c4)ccc23)CC1)C1CCCCC1 [Compound 57, (1R)-1-cyclohexylethyl 4-[6-(1-methyl-1H-pyrazol-4-yl)pyrazolo[1,5-a]pyridin-3-yl]piperazine-1-carboxylate]",5.25,5.28,
"Cc1ccc(CN2CCN(c3cnn4cc(-c5cnn(C)c5)ccc34)CC2)o1 [Compound 201, 6-(1-methyl-1H-pyrazol-4-yl)-3-(4-((5-methylfuran-2-yl)methyl)piperazin-1-yl)pyrazolo[1,5-a]pyridine]",< 5.00,1.30,
"Cn1cc(-c2ccc3c(N4CCN(c5ncc(CN6CCCCC6)cn5)CC4)cnn3c2)cn1 [Compound 42, 6-(1-methyl-1H-pyrazol-4-yl)-3-{4-[5-(piperidin-1-ylmethyl)pyrimidin-2-yl]piperazin-1-yl}pyrazolo[1,5-a]pyridine]",5.08,10.21,4.64
"Cn1cc(-c2ccc3c(N4CCN(c5ncc(CN6CCc7ccccc76)cn5)CC4)cnn3c2)cn1 [Compound 174, 3-(4-(5-(indolin-1-ylmethyl)pyrimidin-2-yl)piperazin-1-yl)-6-(1-methyl-1H-pyrazol-4-yl)pyrazolo[1,5-a]pyridine]",6.51,6.67,
"Cn1cc(-c2ccc3c(N4CCN(c5ncc(CCCc6ccccc6)cn5)CC4)cnn3c2)cn1 [Compound 183, 6-(1-methyl-1H-pyrazol-4-yl)-3-(4-(5-(3-phenylpropyl)pyrimidin-2-yl)piperazin-1-yl)pyrazolo[1,5-a]pyridine]",6.09,5.74,
"Cn1cc(-c2ccc3c(-c4ccn(-c5ncc(Cc6ccccc6)cn5)c4)cnn3c2)cn1 [Compound 76, 3-[1-(5-benzylpyrimidin-2-yl)-1H-pyrrol-3-yl]-6-(1-methyl-1H-pyrazol-4-yl)pyrazolo[1,5-a]pyridine]",6.03,6.18,
"[2H]C1([2H])N(C(=O)O[C@H](C)c2ccc(Cl)cc2)C([2H])([2H])C([2H])([2H])N(c2cnn3cc(-c4cnn(C)c4)ccc23)C1([2H])[2H] [Compound 290, (R)-1-(4-chlorophenyl)ethyl 4-(6-(1-methyl-1H-pyrazol-4-yl)pyrazolo[1,5-a]pyridin-3-yl)piperazine-1-carboxylate-2,2,3,3,5,5,6,6-d8]",9.25,10.47,
"Cn1cc(-c2cc3ncc(N4CCN(C(=O)OC(C)(C)C)CC4)n3cn2)cn1 [Compound 83, tert-butyl 4-(7-(1-methyl-1H-pyrazol-4-yl)imidazo[1,2-c]pyrimidin-3-yl)piperazine-1-carboxylate]",6.02,6.49,
"Cn1cc(-c2ccc3c(N4CCN(c5ncc(Cc6cocn6)cn5)CC4)cnn3c2)cn1 [Compound 171, 4-((2-(4-(6-(1-methyl-1H-pyrazol-4-yl)pyrazolo[1,5-a]pyridin-3-yl)piperazin-1-yl)pyrimidin-5-yl)methyl)oxazole]",< 5.00,5.33,
"CN(CCNc1cnn2cc(-c3cnn(C)c3)ccc12)c1ncc(Cc2ccccc2)cn1 [Compound 126, N^1-(5-benzylpyrimidin-2-yl)-N^1-methyl-N^2-(6-(1-methyl-1H-pyrazol-4-yl)pyrazolo[1,5-a]pyridin-3-yl)ethane-1,2-diamine]",5.15,5.91,
"CN(CCN(C)c1cnc2cc(-c3cnn(C)c3)ncn12)C(=O)OC(C)(C)C [Compound 95, tert-butyl methyl(2-(methyl(7-(1-methyl-1H-pyrazol-4-yl)imidazo[1,2-c]pyrimidin-3-yl)amino)ethyl)carbamate]",< 5.00,1.16,
"COCCn1cncc1-c1ccc2c(N3CCN(C(=O)OC(C)(C)C)CC3)cnn2c1 [Compound 228, tert-butyl 4-(6-(1-(2-methoxyethyl)-1H-imidazol-5-yl)pyrazolo[1,5-a]pyridin-3-yl)piperazine-1-carboxylate]",< 5.00,1.19,
"Cn1cc(-c2cc3ncc(N4CCCN(C(=O)OC(C)(C)C)CC4)n3cn2)cn1 [Compound 85, tert-butyl 4-(7-(1-methyl-1H-pyrazol-4-yl)imidazo[1,2-c]pyrimidin-3-yl)-1,4-diazepane-1-carboxylate]",5.80,0.82,
"CC(C)(C)OC(=O)N1CCN(c2cnn3cc(C4CCOCC4)ccc23)CC1 [Compound 224, tert-butyl-4-(6-(tetrahydro-2H-pyran-4-yl)pyrazolo[1,5-a]pyridin-3-yl)piperazine-1-carboxylate]",< 5.00,0.66,
